Assay [1] has as its target T1, hFFA2 (Homo sapiens, UniProt O15552, C141G).
T1 sequence (O15552 1-330 C141G): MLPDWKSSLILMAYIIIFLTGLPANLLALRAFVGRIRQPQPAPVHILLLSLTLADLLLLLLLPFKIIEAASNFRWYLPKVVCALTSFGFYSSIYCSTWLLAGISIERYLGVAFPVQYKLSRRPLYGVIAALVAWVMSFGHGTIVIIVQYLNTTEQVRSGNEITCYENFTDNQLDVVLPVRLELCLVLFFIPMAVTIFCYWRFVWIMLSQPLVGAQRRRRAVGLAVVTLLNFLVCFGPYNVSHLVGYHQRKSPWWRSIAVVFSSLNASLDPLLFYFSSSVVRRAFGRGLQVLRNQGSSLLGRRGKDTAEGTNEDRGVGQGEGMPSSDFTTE
Kind of assay: beta-arrestin-2 BRET recruitment. Type of assay: cell-based. (BRET reads energy transfer from a luciferase to a nearby fluorophore.)

The target of another assay is T2, bFFA2 (Bos taurus, UniProt A0ACM8QIU6).
T2 sequence (A0ACM8QIU6 1-329): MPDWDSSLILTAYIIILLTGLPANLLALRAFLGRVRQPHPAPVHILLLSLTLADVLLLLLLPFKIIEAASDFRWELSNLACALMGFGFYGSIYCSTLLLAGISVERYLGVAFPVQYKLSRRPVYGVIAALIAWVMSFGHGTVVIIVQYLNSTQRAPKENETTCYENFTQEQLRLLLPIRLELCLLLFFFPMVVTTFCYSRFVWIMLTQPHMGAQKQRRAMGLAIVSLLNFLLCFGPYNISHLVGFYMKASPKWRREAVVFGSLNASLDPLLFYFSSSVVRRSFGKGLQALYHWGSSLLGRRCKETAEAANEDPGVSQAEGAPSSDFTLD
The assay can be described thus: beta-arrestin-2 BRET recruitment. Type of assay: cell-based.

The target in assay [2] is T3, hFFA2 (Homo sapiens, UniProt O15552).
T3 sequence (O15552 1-330): T1 sequence (O15552 1-330 C141G) with G141C
Kind of assay: beta-arrestin-2 BRET recruitment. The format is cell-based.

The next assay deals with T4, bFFA3 (Bos taurus, UniProt A0ACM8QIV1).
T4 sequence (A0ACM8QIV1 1-326): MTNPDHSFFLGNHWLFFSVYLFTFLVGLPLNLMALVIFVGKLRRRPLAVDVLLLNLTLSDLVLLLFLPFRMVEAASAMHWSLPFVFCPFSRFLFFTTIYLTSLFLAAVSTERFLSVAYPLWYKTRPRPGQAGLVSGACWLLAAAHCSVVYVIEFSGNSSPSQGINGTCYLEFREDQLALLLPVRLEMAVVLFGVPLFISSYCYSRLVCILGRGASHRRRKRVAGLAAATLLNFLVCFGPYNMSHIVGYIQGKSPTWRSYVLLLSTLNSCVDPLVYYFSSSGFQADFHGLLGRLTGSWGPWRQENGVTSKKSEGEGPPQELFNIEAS
Kind of assay: […]GTPγS incorporation, membranes. Type of assay: biochemical.

The next assay addresses T5, hFFA3 (Homo sapiens, UniProt O14843).
T5 sequence (O14843 1-346): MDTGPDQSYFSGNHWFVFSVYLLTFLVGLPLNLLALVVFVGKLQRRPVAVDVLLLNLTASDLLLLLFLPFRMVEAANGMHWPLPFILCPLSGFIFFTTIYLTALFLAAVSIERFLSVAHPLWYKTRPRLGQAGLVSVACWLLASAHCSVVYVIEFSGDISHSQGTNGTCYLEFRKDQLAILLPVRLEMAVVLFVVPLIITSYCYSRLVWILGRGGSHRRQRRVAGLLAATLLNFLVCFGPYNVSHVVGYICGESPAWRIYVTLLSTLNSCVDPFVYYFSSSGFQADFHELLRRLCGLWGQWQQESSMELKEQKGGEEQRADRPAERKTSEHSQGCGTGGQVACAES
The assay can be described thus: […]GTPγS incorporation, membranes. The format is biochemical.

In assay [3] the target is T6, hFFA2 (Homo sapiens, UniProt O15552, C141G/H242Q).
T6 sequence (O15552 1-330 C141G/H242Q): T1 sequence (O15552 1-330 C141G) with H242Q
Kind of assay: […]GTPγS incorporation, membranes. Type of assay: biochemical.

Positions count from the first letter of the chain named.

For orientation: EC50 means the concentration giving half of the maximal effect. Lower therefore signals an effect from little substance. Turning to `C=CC=CC(=O)O` [compound 24, 2,4-pentadienoic acid], the EC50 on hFFA2 [1] was 22.9 µM; on bFFA2, 10 µM.
For `CC(=O)O` [C2, acetic acid], the EC50 on hFFA2 [2] was 1000 µM; at bFFA3 it was 4370 µM; on hFFA3, 7590 µM; at bFFA2 it was 2040 µM.
Turning to `C/C=C/C=C/C(=O)O` [compound 25, 2,4-hexadienoic acid], the EC50 at hFFA2 [3] is 3.47 µM; on hFFA2 [1], 4.57 µM; on hFFA2 [2], greater than 10000 µM; at bFFA2, 4.27 µM.
As for `O=CO` [C1, formic acid], the EC50 at hFFA2 [2] was 2510 µM; at bFFA3, greater than 10000 µM; at hFFA3, greater than 10000 µM; on bFFA2, greater than 10000 µM.
`CCC/C=C/C(=O)O` [compound 23, trans-2-hexenoic acid]: the EC50 on hFFA2 [1] was 3.24 µM; on hFFA2 [2] it was greater than 10000 µM; on bFFA2, 3.98 µM.
The corresponding values for `O=C(O)C1=CCCC1` [compound 27, 1-cyclopentenecarboxylic acid] are 83.2 µM, greater than 10000 µM and 11 µM.
With `CC(=CC(=O)O)C(F)(F)F` [compound 26, 4,4,4-trifluoro-3-methyl-2-butenoic acid], the EC50 was 257 µM on hFFA2 [1], greater than 10000 µM at hFFA2 [2] and 12.9 µM at bFFA2.
As for `CCCCCC(=O)O` [C6, caproic acid], the EC50 is 24 µM at hFFA2 [1]; greater than 10000 µM on hFFA2 [2]; 126 µM at bFFA3; 204 µM at hFFA3; 20.9 µM on bFFA2.
Take `O=C(O)C1=CCCCC1` [compound 29, 1-cyclohexene-1-carboxylic acid]: the EC50 on hFFA2 [1] was 158 µM; at hFFA2 [2], greater than 10000 µM; on bFFA2, 60.3 µM.
As for `CC/C=C/C(=O)O` [compound 22, trans-2-pentenoic acid], the EC50 on hFFA2 [1] was 33.1 µM; on bFFA2, 5.25 µM.
Consider `CCCCC(=O)O` [C5, valeric acid], for which the EC50 was 7080 µM at hFFA2 [2], 123 µM at bFFA3, 36.3 µM on hFFA3 and 42.7 µM on bFFA2.
For `O=C(O)/C=C/c1ccccc1` [compound 28, trans-cinnamic acid], the figures for the EC50 on hFFA2 [1], on hFFA2 [2] and on bFFA2 were 389 µM, greater than 10000 µM and 174 µM, respectively.
In the case of `CCCCCCCC(=O)O` [C8, caprylic acid], the EC50 at hFFA2 [1] is 1070 µM; at hFFA2 [2], greater than 10000 µM; at bFFA3, greater than 10000 µM; at hFFA3, greater than 10000 µM; on bFFA2 it was 617 µM.
For the compound `CCCCCCC(=O)O` [C7, heptanoic acid], the EC50 is 105 µM on hFFA2 [1]; greater than 10000 µM on hFFA2 [2]; 158 µM on bFFA3; 69.2 µM on hFFA3; 155 µM on bFFA2.
`CCCC(=O)O` [C4, butyric acid]: the EC50 on hFFA2 [2] is 1480 µM; on bFFA3, 263 µM; on hFFA3 it was 251 µM; on bFFA2, 69.2 µM.
The corresponding values for `CCCCCCCCC(=O)O` [C9, pelargonic acid] are greater than 10000 µM, greater than 10000 µM, greater than 10000 µM and 3390 µM.
Turning to `CCC(=O)O` [C3, propionic acid], the values for the EC50 on bFFA3, on hFFA3 and at bFFA2 were 155 µM, 200 µM and 347 ± 7.01 µM, respectively.
